# Data as given in patent US9623016B2, “Antibacterial compounds” (Emergent Virology LLC, priority 2013, dated 2017).
# Read-outs that look alike come from different tables or passages of the source.
# How the values were obtained:
# P. aeruginosa 4961 = system: P. aeruginosa 4961
# Protocol: (§1) MBC is the lowest concentration of compound required to kill an organism. […] In the case of small colony variants, growth might not occur earlier than 48 hours.
# E. coli (K12) [1] = system: E. coli (K12)
# Protocol: as §1
# P. aeruginosa 4990 = system: P. aeruginosa 4990
# Protocol: as §1
# E. coli (WT) = system: E. coli (WT)
# Protocol: as §1
# S. aureus (Col) [2] = system: S. aureus (Col)
# Protocol: (§2) The MIC assay is a technique used to determine the lowest concentration of a particular antibiotic needed to inhibit visible growth of bacteria. In this method, two fold serial dilutions of the compound were prepared in broth media. An inoculum of overnight bacterial cultures will be prepared in the same broth medium. The serial dilution tubes will be inoculated with 0.025 ml of undiluted over-night culture (1:100), a 1×10-2 dilution (1:10,000), or a 1×10-4 dilution (1:1,000,000) of bacterial suspension. Results were recorded after 24 hour incubation at 35° C. without shaking by measuring OD600. The MIC is determined by the lowest concentration of compound where no growth is visible.
# Streptococcus pneumoniae = conditions: Based on SBA agar (not confirmatory)
# Protocol: as §2
# E. coli (K12) [3] = system: E. coli (K12); remark: listed apart in the source
# Protocol: as §2
# B. subtilis [4] = system: B. subtilis
# Protocol: as §2
# S. aureus (Col) [5] = assay: Minimum Bactericidal Concentration (MBC); format: cell-based
# Protocol: as §1
# S. aureus (8324-5) = assay: Minimum Bactericidal Concentration (MBC); format: cell-based
# Protocol: as §1
# P. aeruginosa 4858 = assay: Minimum Bactericidal Concentration (MBC); format: cell-based
# Protocol: as §1
# B. subtilis [6] = assay: Minimum Bactericidal Concentration (MBC); format: cell-based
# Protocol: as §1
# S. aureus (USA300) [7] = assay: Minimum Bactericidal Concentration (MBC); format: cell-based
# Protocol: as §1
# S. aureus = assay: Minimum Bactericidal Concentration (MBC); format: cell-based; conditions: UV-4B
# Protocol: as §1
# S. aureus (USA300) [8] = assay: Minimum Inhibitory Concentration (MIC); format: cell-based
# Protocol: as §2
structure (smiles),measurement,setting,value
"COCCCCCCCCCN1C[C@H](O)[C@@H](O)[C@H](O)[C@H]1CO.Cl [UV-4B, hydrochloric acid salt of N-(9-Methoxynonyl)deoxynojirimycin]",MBC,P. aeruginosa 4961; UV-4B,>20000 µg/mL
same,growth after re-inoculation on BHI agar,P. aeruginosa 4961; UV-4B 2.50 mg/ml,+
same,growth after re-inoculation on BHI agar,P. aeruginosa 4961; UV-4B 5.00 mg/ml,+
same,growth after re-inoculation on BHI agar,P. aeruginosa 4961; UV-4B 10 mg/ml,+
same,growth after re-inoculation on BHI agar,P. aeruginosa 4961; UV-4B 20 mg/ml,+
same,MBC,E. coli (K12) [1]; UV-4B,20000 µg/mL
same,growth after re-inoculation on BHI agar,E. coli (K12) [1]; UV-4B 2.50 mg/ml,+
same,growth after re-inoculation on BHI agar,E. coli (K12) [1]; UV-4B 5.00 mg/ml,+
same,growth after re-inoculation on BHI agar,E. coli (K12) [1]; UV-4B 10 mg/ml,+
same,growth after re-inoculation on BHI agar,E. coli (K12) [1]; UV-4B 20 mg/ml,+
same,MBC,P. aeruginosa 4990; UV-4B,>20000 µg/mL
same,growth after re-inoculation on BHI agar,P. aeruginosa 4990; UV-4B 2.50 mg/ml,+
same,growth after re-inoculation on BHI agar,P. aeruginosa 4990; UV-4B 5.00 mg/ml,+
same,growth after re-inoculation on BHI agar,P. aeruginosa 4990; UV-4B 10 mg/ml,+
same,growth after re-inoculation on BHI agar,P. aeruginosa 4990; UV-4B 20 mg/ml,+
same,MBC,E. coli (WT); UV-4B,10000 µg/mL
same,growth after re-inoculation on BHI agar,E. coli (WT); UV-4B 2.50 mg/ml,+
same,growth after re-inoculation on BHI agar,E. coli (WT); UV-4B 5.00 mg/ml,+
same,growth after re-inoculation on BHI agar,E. coli (WT); UV-4B 10 mg/ml,−
same,MIC,S. aureus (Col) [2]; Table 3,2500 µg/mL
same,MIC,S. aureus (Col) [2]; Table 4,625 µg/mL
same,growth (OD600),"S. aureus (Col) [2]; Table 4, 0.02 mg/ml",+ (+ OD600 <0.05)
same,growth (OD600),"S. aureus (Col) [2]; Table 4, 0.04 mg/ml",+ (+ OD600 <0.05)
same,growth (OD600),"S. aureus (Col) [2]; Table 4, 0.08 mg/ml",+ (+ OD600 <0.05)
same,growth (OD600),"S. aureus (Col) [2]; Table 4, 0.16 mg/ml",+ (+ OD600 <0.05)
same,growth (OD600),"S. aureus (Col) [2]; Table 4, 0.31 mg/ml",+ (+ OD600 <0.05)
same,growth (OD600),"S. aureus (Col) [2]; Table 4, 0.63 mg/ml",− (− OD600 >0.05)
same,growth (OD600),"S. aureus (Col) [2]; Table 4, 2.50 mg/ml",− (− OD600 >0.05)
same,growth (OD600),"S. aureus (Col) [2]; Table 4, 5 mg/ml",− (− OD600 >0.05)
same,growth (OD600),"S. aureus (Col) [2]; Table 4, 10 mg/ml",− (− OD600 >0.05)
same,growth (OD600),"S. aureus (Col) [2]; Table 4, 20 mg/ml",− (− OD600 >0.05)
same,visible growth,S. aureus (Col) [2]; UV-4B 0.02 mg/ml,+
same,visible growth,S. aureus (Col) [2]; UV-4B 0.04 mg/ml,+
same,visible growth,S. aureus (Col) [2]; UV-4B 0.08 mg/ml,+
same,visible growth,S. aureus (Col) [2]; UV-4B 0.16 mg/ml,+
same,visible growth,S. aureus (Col) [2]; UV-4B 0.31 mg/ml,+
same,visible growth,S. aureus (Col) [2]; UV-4B 0.63 mg/ml,+
same,visible growth,S. aureus (Col) [2]; UV-4B 2.50 mg/ml,−
same,visible growth,S. aureus (Col) [2]; UV-4B 5 mg/ml,−
same,visible growth,S. aureus (Col) [2]; UV-4B 10 mg/ml,−
same,MIC,Streptococcus pneumoniae; Table 3,10000 µg/mL
same,visible growth,Streptococcus pneumoniae; UV-4B 0.04 mg/ml,+
same,visible growth,Streptococcus pneumoniae; UV-4B 0.08 mg/ml,+
same,visible growth,Streptococcus pneumoniae; UV-4B 0.16 mg/ml,+
same,visible growth,Streptococcus pneumoniae; UV-4B 0.31 mg/ml,+
same,visible growth,Streptococcus pneumoniae; UV-4B 0.63 mg/ml,+
same,visible growth,Streptococcus pneumoniae; UV-4B 2.50 mg/ml,+
same,visible growth,Streptococcus pneumoniae; UV-4B 5 mg/ml,+
same,visible growth,Streptococcus pneumoniae; UV-4B 10 mg/ml,−
same,MIC,E. coli (K12) [3]; Table 3,5000 µg/mL
same,visible growth,E. coli (K12) [3]; UV-4B 0.04 mg/ml,+
same,visible growth,E. coli (K12) [3]; UV-4B 0.08 mg/ml,+
same,visible growth,E. coli (K12) [3]; UV-4B 0.16 mg/ml,+
same,visible growth,E. coli (K12) [3]; UV-4B 0.31 mg/ml,+
same,visible growth,E. coli (K12) [3]; UV-4B 0.63 mg/ml,+
same,visible growth,E. coli (K12) [3]; UV-4B 2.50 mg/ml,+
same,visible growth,E. coli (K12) [3]; UV-4B 5 mg/ml,−
same,visible growth,E. coli (K12) [3]; UV-4B 10 mg/ml,−
same,visible growth,E. coli (K12) [3]; UV-4B 20 mg/ml,−
same,MIC,B. subtilis [4]; Table 3,2500 µg/mL
same,MIC,B. subtilis [4]; Table 4,625 µg/mL
same,growth (OD600),"B. subtilis [4]; Table 4, 0.02 mg/ml",+ (+ OD600 <0.05)
same,growth (OD600),"B. subtilis [4]; Table 4, 0.04 mg/ml",+ (+ OD600 <0.05)
same,growth (OD600),"B. subtilis [4]; Table 4, 0.08 mg/ml",+ (+ OD600 <0.05)
same,growth (OD600),"B. subtilis [4]; Table 4, 0.16 mg/ml",+ (+ OD600 <0.05)
same,growth (OD600),"B. subtilis [4]; Table 4, 0.31 mg/ml",+ (+ OD600 <0.05)
same,growth (OD600),"B. subtilis [4]; Table 4, 0.63 mg/ml",− (− OD600 >0.05)
same,growth (OD600),"B. subtilis [4]; Table 4, 2.50 mg/ml",− (− OD600 >0.05)
same,growth (OD600),"B. subtilis [4]; Table 4, 5 mg/ml",− (− OD600 >0.05)
same,growth (OD600),"B. subtilis [4]; Table 4, 10 mg/ml",− (− OD600 >0.05)
same,growth (OD600),"B. subtilis [4]; Table 4, 20 mg/ml",− (− OD600 >0.05)
same,visible growth,B. subtilis [4]; UV-4B 0.02 mg/ml,+
same,visible growth,B. subtilis [4]; UV-4B 0.04 mg/ml,+
same,visible growth,B. subtilis [4]; UV-4B 0.08 mg/ml,+
same,visible growth,B. subtilis [4]; UV-4B 0.16 mg/ml,+
same,visible growth,B. subtilis [4]; UV-4B 0.31 mg/ml,+
same,visible growth,B. subtilis [4]; UV-4B 0.63 mg/ml,+
same,visible growth,B. subtilis [4]; UV-4B 2.50 mg/ml,−
same,visible growth,B. subtilis [4]; UV-4B 5 mg/ml,−
same,visible growth,B. subtilis [4]; UV-4B 10 mg/ml,−
same,MBC,S. aureus (Col) [5]; UV-4B,2500 µg/mL
same,growth after re-inoculation on BHI agar,S. aureus (Col) [5]; UV-4B 2.50 mg/ml,−
same,growth after re-inoculation on BHI agar,S. aureus (Col) [5]; UV-4B 5.00 mg/ml,−
same,growth after re-inoculation on BHI agar,S. aureus (Col) [5]; UV-4B 10 mg/ml,−
same,growth after re-inoculation on BHI agar,S. aureus (8324-5); UV-4B 2.50 mg/ml,+
same,growth after re-inoculation on BHI agar,S. aureus (8324-5); UV-4B 5.00 mg/ml,+
same,growth after re-inoculation on BHI agar,S. aureus (8324-5); UV-4B 10 mg/ml,+
same,growth after re-inoculation on BHI agar,S. aureus (8324-5); UV-4B 20 mg/ml,−
same,MBC,P. aeruginosa 4858; UV-4B,>20000 µg/mL
same,growth after re-inoculation on BHI agar,P. aeruginosa 4858; UV-4B 2.50 mg/ml,+
same,growth after re-inoculation on BHI agar,P. aeruginosa 4858; UV-4B 5.00 mg/ml,+
same,growth after re-inoculation on BHI agar,P. aeruginosa 4858; UV-4B 10 mg/ml,+
same,growth after re-inoculation on BHI agar,P. aeruginosa 4858; UV-4B 20 mg/ml,+
same,MBC,B. subtilis [6]; UV-4B,>10000 µg/mL
same,growth after re-inoculation on BHI agar,B. subtilis [6]; UV-4B 2.50 mg/ml,+
same,growth after re-inoculation on BHI agar,B. subtilis [6]; UV-4B 5.00 mg/ml,+
same,growth after re-inoculation on BHI agar,B. subtilis [6]; UV-4B 10 mg/ml,+
same,MBC,S. aureus (USA300) [7]; UV-4B,>20000 µg/mL
same,growth after re-inoculation on BHI agar,S. aureus (USA300) [7]; UV-4B 2.50 mg/ml,+
same,growth after re-inoculation on BHI agar,S. aureus (USA300) [7]; UV-4B 5.00 mg/ml,+
same,growth after re-inoculation on BHI agar,S. aureus (USA300) [7]; UV-4B 10 mg/ml,+
same,growth after re-inoculation on BHI agar,S. aureus (USA300) [7]; UV-4B 20 mg/ml,+
same,MBC,S. aureus,20000 µg/mL
same,MIC,"S. aureus (USA300) [8]; Table 3, two independent tests",2500 µg/mL
same,MIC,S. aureus (USA300) [8]; Table 4,62.5 µg/mL
same,growth (OD600),"S. aureus (USA300) [8]; Table 4, 0.02 mg/ml",+ (+ OD600 <0.05)
same,growth (OD600),"S. aureus (USA300) [8]; Table 4, 0.04 mg/ml",+ (+ OD600 <0.05)
same,growth (OD600),"S. aureus (USA300) [8]; Table 4, 0.08 mg/ml",+ (+ OD600 <0.05)
same,growth (OD600),"S. aureus (USA300) [8]; Table 4, 0.16 mg/ml",+ (+ OD600 <0.05)
same,growth (OD600),"S. aureus (USA300) [8]; Table 4, 0.31 mg/ml",+ (+ OD600 <0.05)
same,growth (OD600),"S. aureus (USA300) [8]; Table 4, 0.63 mg/ml",− (− OD600 >0.05)
same,growth (OD600),"S. aureus (USA300) [8]; Table 4, 2.50 mg/ml",− (− OD600 >0.05)
same,growth (OD600),"S. aureus (USA300) [8]; Table 4, 5 mg/ml",− (− OD600 >0.05)
same,growth (OD600),"S. aureus (USA300) [8]; Table 4, 10 mg/ml",− (− OD600 >0.05)
same,growth (OD600),"S. aureus (USA300) [8]; Table 4, 20 mg/ml",− (− OD600 >0.05)
same,visible growth,S. aureus (USA300) [8]; UV-4B 0.04 mg/ml,+
same,visible growth,S. aureus (USA300) [8]; UV-4B 0.08 mg/ml,+
same,visible growth,S. aureus (USA300) [8]; UV-4B 0.16 mg/ml,+
same,visible growth,S. aureus (USA300) [8]; UV-4B 0.31 mg/ml,+
same,visible growth,S. aureus (USA300) [8]; UV-4B 0.63 mg/ml,+
same,visible growth,S. aureus (USA300) [8]; UV-4B 2.50 mg/ml,−
same,visible growth,S. aureus (USA300) [8]; UV-4B 5 mg/ml,−
same,visible growth,S. aureus (USA300) [8]; UV-4B 10 mg/ml,−
same,visible growth,S. aureus (USA300) [8]; UV-4B 20 mg/ml,−
